Test results reported in BindingDB's records for doi:10.1021/acs.jmedchem.6b00948 (Fimbrion Therapeutics, 2016).

Assay: Inhibition of Escherichia coli UTI89 FimH-mediated biofilm formation after 48 hrs by crystal violet staining-based assay

SMILES	IC50 [nM]
Cc1cc(-c2ccc3c(c2)C(=O)NCC3)ccc1O[C@H]1O[C@H](CO)[C@@H](O)[C@H](O)[C@@H]1O	250
CNC(=O)c1cccc(-c2ccc([C@@H](O)[C@H]3O[C@H](CO)[C@@H](O)[C@H](O)[C@@H]3O)cc2)c1	900
Cc1cc(-c2ccc3ccnc(N)c3c2)ccc1O[C@H]1O[C@H](CO)[C@@H](O)[C@H](O)[C@@H]1O	340
CNC(=O)c1cccc(-c2ccc([C@H](O)[C@H]3O[C@H](CO)[C@@H](O)[C@H](O)[C@@H]3O)c(C)c2)c1	11000
CNC(=O)c1cccc(-c2ccc(O[C@H]3O[C@H](CO)[C@@H](O)[C@H](O)[C@@H]3O)cc2)c1	1350
Cc1cc(-c2cccc3cnccc23)ccc1[C@@H](O)[C@H]1O[C@H](CO)[C@@H](O)[C@H](O)[C@@H]1O	600
CNC(=O)c1cccc(-c2ccc([C@H](O)[C@H]3O[C@H](CO)[C@@H](O)[C@H](O)[C@@H]3O)cc2)c1	38000
CNC(=O)c1cccc(-c2ccc(O[C@H]3O[C@H](CO)[C@@H](O)[C@H](O)[C@@H]3O)c(C)c2)c1	150

Molecules with a lower IC50, results first:

IC50 [nM]	SMILES
140	Cc1cc(-c2cccc3cnccc23)ccc1O[C@H]1O[C@H](CO)[C@@H](O)[C@H](O)[C@@H]1O
130	Cc1cc(-c2ccc3cc[nH]c(=O)c3c2)ccc1O[C@H]1O[C@H](CO)[C@@H](O)[C@H](O)[C@@H]1O
80	CNC(=O)c1cccc(-c2ccc([C@@H](O)[C@H]3O[C@H](CO)[C@@H](O)[C@H](O)[C@@H]3O)c(C)c2)c1
40	Cc1cc(-c2ccc3c(c2)C(=O)NCC3)ccc1[C@@H](O)[C@H]1O[C@H](CO)[C@@H](O)[C@H](O)[C@@H]1O
40	Cc1cc(-c2ccc3ccnc(N)c3c2)ccc1[C@@H](O)[C@H]1O[C@H](CO)[C@@H](O)[C@H](O)[C@@H]1O
30	Cc1cc(-c2ccc3cc[nH]c(=O)c3c2)ccc1[C@@H](O)[C@H]1O[C@H](CO)[C@@H](O)[C@H](O)[C@@H]1O
